Assay results published in BindingDB's records for doi:10.1016/j.bmcl.2021.128058 (Hibercell, 2021).
pIC50: −log10 of the molar value.

Assay: Inhibition of eIF2alpha (unknown origin) assessed as eIF2alpha phosphorylation by TR-FRET assay

Cc1cc(NC(=O)[C@H](O)c2cc(F)cc(F)c2)ccc1-c1cnc(N)c(C(=O)OC(C)C)c1
pIC50: 7.31

Cc1cc(NC(=O)[C@H](O)c2ccccc2)ccc1-c1cnc(N)c(C(=O)NC(C)C)c1
pIC50: 6.70

Cc1cc(NC(=O)[C@H](O)c2cc(F)cc(F)c2)ccc1-c1cnc(N)c(C(=O)N(C)C)c1
pIC50: 5.65

COc1cc(NC(=O)[C@H](O)c2cc(F)cc(F)c2)ccc1-c1cnc(N)c(C(=O)NC(C)C)c1
pIC50: 6.44

Cc1cc(NC(=O)[C@@](C)(O)c2ccccc2)ccc1-c1cnc(N)c(C(=O)NC(C)C)c1
pIC50: 5.52

CCc1cc(NC(=O)[C@H](O)c2cc(F)cc(F)c2)ccc1-c1cnc(N)c(C(=O)NC(C)C)c1
pIC50: 8.05

Cc1cc(NC(=O)Oc2ccccc2)ccc1-c1cnc(N)c(C(=O)NC(C)C)c1
pIC50: < 5.00

CCc1cccc([C@@H](O)C(=O)Nc2ccc(-c3cnc(N)c(C(=O)NC(C)C)c3)c(C)c2)c1
pIC50: 7.74

CNc1ncc(-c2ccc(NC(=O)[C@H](O)c3cc(F)cc(F)c3)cc2C)cc1C(=O)NC(C)C
pIC50: 5.39

Cc1cc(NC(=O)Cc2ccccc2)ccc1-c1cnc(N)c(C(=O)NC(C)C)c1
pIC50: 6.51

CNC(=O)c1cc(-c2ccc(NC(=O)[C@H](O)c3cc(F)cc(F)c3)cc2C)cnc1N
pIC50: 7.24

CC(C)NC(=O)c1cc(-c2ccc(NC(=O)[C@H](O)c3cc(F)cc(F)c3)cc2Cl)cnc1N
pIC50: 7.64

Cc1cccc([C@@H](O)C(=O)Nc2ccc(-c3cnc(N)c(C(=O)NC(C)C)c3)c(C)c2)c1
pIC50: 7.27

CNC(=O)c1nc(-c2ccc(NC(=O)[C@H](O)c3cc(F)cc(F)c3)cc2C)cnc1N
pIC50: 7.40

Cc1cc(NC(=O)[C@H](O)c2cc(F)cc(F)c2)ccc1-c1cnc(C)c(C(=O)NC(C)C)c1
pIC50: 6.20

Cc1cc(NC(=O)[C@H](O)c2cc(F)cc(F)c2)ccc1-c1cnc(N)c(C(=O)NC2CC2)c1
pIC50: 7.57

Cc1cc(NC(=O)Nc2ccccc2)ccc1-c1cnc(N)c(C(=O)NC(C)C)c1
pIC50: 5.63

CCNC(=O)c1cc(-c2ccc(NC(=O)[C@H](O)c3cc(F)cc(F)c3)cc2C)cnc1N
pIC50: 7.35

Cc1cc(NC(=O)[C@H](O)c2cc(F)cc(F)c2)ccc1-c1cnc(N)c(C(=O)NC(C)C)n1
pIC50: 7.38

CC(C)NC(=O)c1cc(-c2ccc(NC(=O)[C@H](O)c3cc(F)cc(F)c3)cc2F)cnc1N
pIC50: 7.14

Cc1cc(NC(=O)[C@H](O)c2cccc(Cl)c2)ccc1-c1cnc(N)c(C(=O)NC(C)C)c1
pIC50: 7.40

CO[C@@H](C(=O)Nc1ccc(-c2cnc(N)c(C(=O)NC(C)C)c2)c(C)c1)c1ccccc1
pIC50: 5.48

CC(C)NC(=O)c1cc(-c2ccc(NC(=O)[C@H](O)c3cc(F)cc(F)c3)cc2)cnc1N
pIC50: 6.50

Cc1cc(NC(=O)[C@@H](O)c2cc(F)cc(F)c2)ccc1-c1cnc(N)c(C(=O)NC(C)C)c1
pIC50: 6.73

Cc1cc(NC(=O)[C@H](O)c2cc(F)cc(F)c2)ccc1-c1cnc(N)c(C(=O)NC(C)C)c1
pIC50: 7.48

Cc1cc(NC(=O)[C@H](O)c2cc(F)cc(F)c2)ccc1-c1cnc(N)c(C(=O)NC(C)(C)C)c1
pIC50: 6.94

Cc1cc(NC(=O)[C@H](O)c2cc(F)cc(F)c2)ccc1-c1ccc(N)nc1
pIC50: < 5.00

Cc1cc(NC(=O)[C@](C)(O)c2ccccc2)ccc1-c1cnc(N)c(C(=O)NC(C)C)c1
pIC50: 5.67

Cc1cc(NC(=O)[C@H](O)c2cc(F)cc(F)c2)ccc1-c1cncc(C(=O)NC(C)C)c1
pIC50: 6.74

Cc1cc(NC(=O)[C@H](O)c2cc(F)cc(F)c2)ccc1-c1cc(C(=O)NC(C)C)c(N)nn1
pIC50: 5.12
